Test results reported in US20200347033A1, “MODULATORS OF THE INTEGRATED STRESS PATHWAY” (Calico Life Sciences LLC, priority 2017, published 2020).

Assays:
[1] = system: HEK293T cells carrying the ATF4 luciferase reporter; experiment: ATF4-Luc assay (in vitro model of vanishing white matter disease); type: cell-based, human; conditions: HEK293T cells with ATF4 5'-UTR firefly luciferase reporter, 1 μg/mL tunicamycin, 7 hours, One Glo luminescence
Description: In order to test exemplary compounds of the invention in a cellular context, a stable VWMD cell line was first constructed. The ATF4 reporter was prepared by fusing the human full-length ATF4 5′-UTR (NCBI Accession No. BC022088.2) in front of the firefly luciferase (FLuc) coding sequence lacking the initiator methionine as described in Sidrauski et al (eLife 2013). The construct was used to produce recombinant retroviruses using standard methods and the resulting viral supernatant was used to transduce HEK293T cells, which were then subsequently selected with puromycin to generate a stable cell line.
HEK293T cells carrying the ATF4 luciferase reporter were plated on polylysine coated 384-well plates (Greiner Bio-one) at 30,000 cells per well. Cells were treated the next day with 1 μg/mL tunicamycin and 200 nM of a compound of Formula (I) for 7 hours. Luminescence was measured using One Glo (Promega) as specified by the manufacturer. Cells were maintained in DMEM with L-glutamine supplemented with 10% heat-inactivated FBS (Gibco) and Antibiotic-Antimycotic solution (Gibco).
Table 2 below summarizes the EC50 data obtained using the ATF4-Luc assay for exemplary compounds of the invention.

Compound	EC50 ([1]; Homo sapiens, HEK-293T) [nM]	EC50 [1] [nM]	melting point [°C]
O=C(COc1ccc(Cl)c(F)c1)NC12CC(N3CC(c4ccc(Cl)c(F)c4)OC3=O)(C1)C2 (stereo not drawn) [Compound 116, 2-(4-chloro-3-fluorophenoxy)-N-{3-[5-(4-chloro-3-fluorophenyl)-2-oxo-1,3-oxazolidin-3-yl]bicyclo[1.1.1]pentan-1-yl}acetamide]	50 to 250		
2-(4-chloro-3-fluorophenoxy)-N-[3-(5-chloro-1-hydroxy-3-oxo-1,3-dihydro-2H-isoindol-2-yl)bicyclo[1.1.1]pentan-1-yl]acetamide and 2-(4-chloro-3-fluorophenoxy)-N-[3-(5-chloro-3-hydroxy-1-oxo-,3-dihydro-2H-isoindol-2-yl)bicyclo[1.1.1]pentan-1-yl]acetamide [Compound 153]		> 2000	
O=C(COc1ccc(Cl)c(F)c1)N[C@H]1CC[C@H](N2CCN(c3ccc(C(F)F)cn3)C2=O)CC1 [Compound 133, 2-(4-chloro-3-fluorophenoxy)-N-[(1r,4r)-4-{3-[5-(difluoromethyl)pyridin-2-yl]-2-oxoimidazolidin-1-yl}cyclohexyl]acetamide]	< 50		
O=C(COc1ccc(Cl)c(F)c1)NC12CC(N3CC[C@H](Oc4ccc(Cl)cc4)C3=O)(C1)C2 (single isomer, unassigned) [Compound 103]	50 to 250		
O=C(COc1ccc(Cl)c(F)c1)N[C@H]1CC[C@H](N2CCN(c3ccc(C(F)F)nc3)C2=O)CC1 [Compound 142, 2-(4-chloro-3-fluorophenoxy)-N-[(1r,4r)-4-{3-[6-(difluoromethyl)pyridin-3-yl]-2-oxoimidazolidin-1-yl}cyclohexyl]acetamide]	< 50		
O=C(COc1ccc(Cl)c(F)c1)N[C@H]1CC[C@H](N2CCN(c3ccc(OC(F)(F)F)nc3)C2=O)CC1 [Compound 136, 2-(4-chloro-3-fluorophenoxy)-N-[(1r,4r)-4-{2-oxo-3-[6-(trifluoromethoxy)pyridin-3-yl]imidazolidin-1-yl}cyclohexyl]acetamide]	> 2000		
O=C(COc1ccc(Cl)c(F)c1)NC12CCC(N3CC(c4ccc(Cl)cc4)OC3=O)(CC1)CC2O (stereo not drawn) [Compound 162, 2-(4-chloro-3-fluorophenoxy)-N-{4-[5-(4-chlorophenyl)-2-oxo-1,3-oxazolidin-3-yl]-2-hydroxybicyclo[2.2.2]octan-1-yl}acetamide]	50 to 250		
O=C(NC12CC(N3CC(c4ccc(Cl)c(F)c4)OC3=O)(C1)C2)c1cc(C(F)F)no1 (stereo not drawn) [Compound 167, N-{3-[5-(4-chloro-3-fluorophenyl)-2-oxo-1,3-oxazolidin-3-yl]bicyclo[1.1.1]pentan-1-yl}-3-(difluoromethyl)-1,2-oxazole-5-carboxamide]	> 2000		
O=C(COc1ccc(Cl)c(F)c1)NC12CC(N3CNc4cc(F)c(F)cc4C3=O)(C1)C2 [Compound 137, 2-(4-chloro-3-fluorophenoxy)-N-[3-(6,7-difluoro-4-oxo-1,4-dihydroquinazolin-3(2H)-yl)bicyclo[1.1.1]pentan-1-yl]acetamide]	250 to 1000		
O=C(COc1ccc(Cl)c(F)c1)NC12CC(N3CCC(Oc4ccc(C(F)(F)F)nc4)C3=O)(C1)C2 (stereo not drawn) [Compound 101, 2-(4-chloro-3-fluorophenoxy)-N-[3-(2-oxo-3-{[6-(trifluoromethyl)pyridin-3-yl]oxy}pyrrolidin-1-yl)bicyclo[1.1.1]pentan-1-yl]acetamide]	250 to 1000		
O=C(COc1ccc(Cl)c(F)c1)N[C@H]1CC[C@H](N2CCN(c3ccc(C(F)(F)F)cn3)C2=O)CC1 [Compound 132, 2-(4-chloro-3-fluorophenoxy)-N-[(1r,4r)-4-{2-oxo-3-[5-(trifluoromethyl)pyridin-2-yl]imidazolidin-1-yl}cyclohexyl]acetamide]	< 50		232
O=C(COc1ccc(Cl)c(F)c1)NC12CCC(N3CC[C@@H](c4ccc(Cl)cc4)C3=O)(CC1)C[C@@H]2O (single isomer, unassigned) [Compound 154]	250 to 1000		
O=C(COc1ccc(Cl)c(F)c1)NC12CC(N3CCN(c4ccc(C(F)F)cn4)C3=O)(C1)C2 [Compound 147, 2-(4-chloro-3-fluorophenoxy)-N-(3-{3-[5-(difluoromethyl)pyridin-2-yl]-2-oxoimidazolidin-1-yl}bicyclo[1.1.1]pentan-1-yl)acetamide]	< 50		
O=C(N[C@H]1CC[C@H](N2CCN(c3ccc(C(F)F)cn3)C2=O)CC1)c1ccc(OC(F)(F)F)cn1 [Compound 124, N-[(1r,4r)-4-{3-[5-(difluoromethyl)pyridin-2-yl]-2-oxoimidazolidin-1-yl}cyclohexyl]-5-(trifluoromethoxy)pyridine-2-carboxamide]	> 2000		
